Earlier results as cited in patent US6103487A, “Method of treating cancer” (Merck & Co., Inc., priority 1998, dated 2000).

Assays:
[1] = system: farnesyl-protein transferase; conditions: by inhibiting HMG-CoA reductase
[2] = system: Ras; conditions: inhibits the rate-limiting step in the isoprenoid biosynthetic pathway; positive control

Row | Structure (SMILES) | Indirect inhibition of farnesyl-protein transferase in vivo [1] | block of Ras processing in cells [2]
1 | CC[C@H](C)C(=O)O[C@H]1C[C@@H](C)C=C2C=C[C@H](C)[C@H](CC[C@@H]3C[C@@H](O)CC(=O)O3)[C@H]21 [lovastatin] | Indirect inhibition of farnesyl-protein transferase in vivo has been demonstrated | blocks Ras processing in cells
2 | CC[C@H](C)C(=O)O[C@H]1CCC=C2C=C[C@H](C)[C@H](CC[C@@H]3C[C@@H](O)CC(=O)O3)[C@H]21 [compactin] | Indirect inhibition of farnesyl-protein transferase in vivo has been demonstrated | –
